Data as given in ChEMBL document CHEMBL2321698, “Novel Amino-Nicotinamide Derivatives as Modulators of KCNQ2/3 Potassium Channels” (2013).

Key:
[1] = target: T1, Voltage-gated potassium channel, KQT; KCNQ2(Kv7.2)/KCNQ3(Kv7.3) (Homo sapiens) (UniProt O43526+O43525); assay: Modulation of human KCNQ2/3 channel expressed in CHO-K1 cells by fluorescence assay relative to retigabine; assay type: cell-based; set-up: concentration or dose not given beside the values
[2] = test system: Rattus norvegicus; assay: Antinociceptive activity in po dosed Sprague-Dawley rat by low intensity tail flick test; assay type: functional
[3] = target: T1, Voltage-gated potassium channel, KQT; KCNQ2(Kv7.2)/KCNQ3(Kv7.3) (Homo sapiens); assay: Modulation of human KCNQ2/3 channel expressed in CHO-K1 cells by fluorescence assay; assay type: cell-based

Structure (SMILES)	Activity [1] [%]	ED50 [2] [mg/kg]	Activity [3] [nM]
CCCc1nc(N2CCOCC2)cc(C)c1C(=O)NCc1cccc(F)c1	176	81	181
CCSc1nc(N2CCOCC2)cc(C)c1C(=O)NCc1ccc(F)cc1	158	94	124
CCSc1nc(N2CCOCC2)cc(C)c1C(=O)NCCCC(C)(C)C	244	100	42
CCSc1nc(N2CCOCC2)cc(C)c1C(=O)NCc1cc(C)cc(F)c1	160	78	56
Cc1cc(N2CCOCC2)nc(C2CC2)c1C(=O)NC[C@@H]1CCCC[C@H]1O	245	67	483
COc1nc(N2CCOCC2)cc(C)c1C(=O)NCc1cccc(F)c1	155	79	736
CCSc1nc(N2CCOCC2)cc(C)c1C(=O)NCc1cccc(F)c1	171	4.3	134
CCSc1nc(N2CCOCC2)cc(C)c1C(=O)NCCCC(C)C	215	46	206
